In a compilation of properties of binary mixtures (doi:10.1007/s10973-018-7427-0):

Assay: xn = mol fraction of the nth substance listed
Details: 100 kPa

CCCC[n+]1ccn(C)c1.F[P-](F)(F)(F)(F)F + C=CN1CCCC1=O
x1 = 1
Details | speed of sound [m/s]
298.15 K | 1443.8
303.15 K | 1431.7
308.15 K | 1419.8
313.15 K | 1408.2
318.15 K | 1396.8
323.15 K | 1385.6

C=CN1CCCC1=O + CCCC[n+]1ccn(C)c1.F[P-](F)(F)(F)(F)F
speed of sound [m/s]
Details | x2 = 0 | x2 = 0.1011 | x2 = 0.2059 | x2 = 0.3019 | x2 = 0.3937 | x2 = 0.5023 | x2 = 0.584 | x2 = 0.6946 | x2 = 0.7788 | x2 = 0.8707
298.15 K | 1521.5 | – | 1506 | 1496.4 | 1487.8 | 1477.6 | 1470.5 | 1461.5 | 1455.7 | 1449.9
303.15 K | – | 1498.9 | 1490.1 | – | 1473.5 | 1463.9 | 1457.4 | 1449.1 | 1443.4 | 1437.9
308.15 K | 1483.7 | 1481.8 | – | – | 1459.2 | 1450.2 | 1444.3 | – | 1431.1 | 1425.8
313.15 K | 1465 | 1464.7 | 1458.3 | – | 1444.9 | – | 1431.2 | – | 1419 | 1414
318.15 K | 1446.5 | – | – | 1436.6 | 1430.9 | 1423.4 | 1418.4 | 1411.6 | 1407 | 1402.3
323.15 K | – | 1431.1 | – | – | 1416.9 | 1410.2 | 1405.7 | 1399.4 | 1395.1 | 1390.8
